Measurements reported in PubChem BioAssay AID330 (DTP/NCI, 2004).
Where “and” joins values, the source holds several entries; their conditions need not be identical. Equal values may be shown once. Inconclusive results and toxic doses are left out.

Tested on: P388 leukemia ip, CD2F1 mice, survival T/C
Assay: NCI In Vivo Anticancer Drug Screen. Data for tumor model P388 Leukemia (intraperitoneal) in CD2F1 (CDF1) mice
Conditions: endpoint: median survival time, higher = longer survival
In short: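 Mice carrying the transplanted tumor received test compound or vehicle. Survival was recorded in each group, and the value is the treated-group measurement divided by that of the vehicle-treated control group.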

[1] = dose: 50.0 mg/kg/injection, schedule: Q01DX005 (ip), vehicle: Klucel (hydroxypropylcellulose) (HPC)
[2] = dose: 100.0 mg/kg/injection, schedule: Q01DX005 (ip), vehicle: Klucel (hydroxypropylcellulose) (HPC)
[3] = dose: 200.0 mg/kg/injection, schedule: Q01DX005 (ip), vehicle: Klucel (hydroxypropylcellulose) (HPC)
[4] = dose: 50.0 mg/kg/injection, schedule: Q01DX005 (ip), vehicle: saline with Tween-80
[5] = dose: 100.0 mg/kg/injection, schedule: Q01DX005 (ip), vehicle: saline with Tween-80
[6] = dose: 200.0 mg/kg/injection, schedule: Q01DX005 (ip), vehicle: saline with Tween-80
[7] = dose: 12.5 mg/kg/injection, schedule: Q01DX009 (ip), vehicle: saline with Tween-80

## COc1ccc(/C=C/C2=C(C(=O)O)CCCO2)cc1
dose: 100.0 mg/kg/injection, schedule: Q04DX002 (ip), vehicle: saline with Tween-80
  T/C: 103 % of control
dose: 200.0 mg/kg/injection, schedule: Q04DX002 (ip), vehicle: saline with Tween-80
  T/C: 100 % of control
dose: 400.0 mg/kg/injection, schedule: Q04DX002 (ip), vehicle: saline with Tween-80
  T/C: 90 % of control

## COC(=O)CCC1=C(C)c2cc3[nH]c(cc4[nH]c(cc5nc(cc1n2)C(CCC(=O)OC)=C5C)c(C#N)c4C)c(C#N)c3C
[1]
  T/C: 104 % of control
[2]
  T/C: 95 % of control
[3]
  T/C: 100 % of control

## O=[N+]([O-])c1cccc(C(Nc2nncs2)Nc2nncs2)c1
[1]
  T/C: 106 % of control and 96 % of control
[2]
  T/C: 95 % of control
[3]
  T/C: 94 % of control
dose: 400.0 mg/kg/injection, schedule: Q01DX005 (ip), vehicle: Klucel (hydroxypropylcellulose) (HPC)
  T/C: 96 % of control

## OC1OC2COC(c3ccccc3)OC2C(O)C1O (stereo not drawn)
dose: 25.0 mg/kg/injection, schedule: Q01DX005 (ip), vehicle: water
  T/C: 100 % of control
dose: 50.0 mg/kg/injection, schedule: Q01DX005 (ip), vehicle: water
  T/C: 100 % of control
dose: 100.0 mg/kg/injection, schedule: Q01DX005 (ip), vehicle: water
  T/C: 100 % of control
dose: 200.0 mg/kg/injection, schedule: Q01DX005 (ip), vehicle: water
  T/C: 101 % of control
dose: 400.0 mg/kg/injection, schedule: Q01DX005 (ip), vehicle: water
  T/C: 107 % of control
dose: 800.0 mg/kg/injection, schedule: Q01DX005 (ip), vehicle: water
  T/C: 95 % of control

## O=C(O)C1CSC(c2cccnc2)N1 (stereo not drawn)
dose: 50.0 mg/kg/injection, schedule: Q01DX009 (ip), vehicle: saline
  T/C: 89 % of control
dose: 100.0 mg/kg/injection, schedule: Q01DX009 (ip), vehicle: saline
  T/C: 90 % of control

## COC(=O)C(Cc1ccccc1)NCCNC(C)=O (stereo not drawn)
dose: 100.0 mg/kg/injection, schedule: Q04DX003 (ip), vehicle: saline with Tween-80
  T/C: 95 % of control
dose: 200.0 mg/kg/injection, schedule: Q04DX003 (ip), vehicle: saline with Tween-80
  T/C: 95 % of control

## Cc1cnc2cc(Cl)ccc2c1SCC(=O)O
[4]
  T/C: 104 % of control
[5]
  T/C: 108 % of control
[6]
  T/C: 108 % of control

## NC(=S)c1ccc(N=Cc2ccc(Cl)cc2)cc1
dose: 50.0 mg/kg/injection, schedule: Q01DX001 (ip), vehicle: Klucel (hydroxypropylcellulose) (HPC)
  T/C: 97 % of control
dose: 100.0 mg/kg/injection, schedule: Q01DX001 (ip), vehicle: Klucel (hydroxypropylcellulose) (HPC)
  T/C: 100 % of control
dose: 200.0 mg/kg/injection, schedule: Q01DX001 (ip), vehicle: Klucel (hydroxypropylcellulose) (HPC)
  T/C: 102 % of control

## O=C(CC(c1ccccc1)C1c2ccccc2C(=O)c2ccccc21)c1ccccc1 (stereo not drawn)
dose: 50.0 mg/kg/injection, schedule: Q01DX009 (ip), vehicle: Klucel (hydroxypropylcellulose) (HPC)
  T/C: 87 % of control
dose: 100.0 mg/kg/injection, schedule: Q01DX009 (ip), vehicle: Klucel (hydroxypropylcellulose) (HPC)
  T/C: 93 % of control
dose: 200.0 mg/kg/injection, schedule: Q01DX009 (ip), vehicle: Klucel (hydroxypropylcellulose) (HPC)
  T/C: 92 % of control
dose: 400.0 mg/kg/injection, schedule: Q01DX009 (ip), vehicle: Klucel (hydroxypropylcellulose) (HPC)
  T/C: 88 % of control

## S=c1c(-c2ccccc2)cnc2sccn12
dose: 60.0 mg/kg/injection, schedule: Q01DX005 (ip), vehicle: saline with Tween-80
  T/C: 100 % of control
dose: 120.0 mg/kg/injection, schedule: Q01DX005 (ip), vehicle: saline with Tween-80
  T/C: 96 % of control
dose: 240.0 mg/kg/injection, schedule: Q01DX005 (ip), vehicle: saline with Tween-80
  T/C: 98 % of control

## C=CCOc1ccccc1N/N=C(\Cl)C(=O)OC
dose: 12.5 mg/kg/injection, schedule: Q01DX005 (ip), vehicle: saline with Tween-80
  T/C: 102 % of control
dose: 25.0 mg/kg/injection, schedule: Q01DX005 (ip), vehicle: saline with Tween-80
  T/C: 108 % of control
[4]
  T/C: 109 % of control and 114 % of control

## O=C1c2cccc3cc([N+](=O)[O-])cc(c23)C(=O)N1CCN1CCCC1
dose: 1.56 mg/kg/injection, schedule: Q01DX009 (ip), vehicle: saline with Tween-80
  T/C: 118 % of control
[7]
  T/C: 150 % of control

## O=S(=O)(Oc1cccc(C(F)(F)F)c1)c1cccc(C(F)(F)F)c1
dose: 6.25 mg/kg/injection, schedule: Q01DX009 (ip), vehicle: saline with Tween-80
  T/C: 100 % of control
dose: 6.25 mg/kg/injection, schedule: Q04DX003 (ip), vehicle: saline with Tween-80
  T/C: 100 % of control
[7]
  T/C: 91 % of control
dose: 12.5 mg/kg/injection, schedule: Q04DX003 (ip), vehicle: saline with Tween-80
  T/C: 100 % of control
dose: 25.0 mg/kg/injection, schedule: Q01DX009 (ip), vehicle: saline with Tween-80
  T/C: 91 % of control
dose: 25.0 mg/kg/injection, schedule: Q04DX003 (ip), vehicle: saline with Tween-80
  T/C: 100 % of control

## CCN(CC)c1ccc(/C=N/Nc2c3c(nc4ccccc24)CCCC3)cc1
dose: 6.25 mg/kg/injection, schedule: Q01DX005 (ip), vehicle: saline
  T/C: 100 % of control
dose: 12.5 mg/kg/injection, schedule: Q01DX005 (ip), vehicle: saline
  T/C: 99 % of control

## CNC(=O)c1cccc2ccc[n+](C)c12
dose: 0.62 mg/kg/injection, schedule: Q04DX002 (ip), vehicle: saline
  T/C: 107 % of control
dose: 1.25 mg/kg/injection, schedule: Q04DX002 (ip), vehicle: saline
  T/C: 109 % of control
dose: 2.5 mg/kg/injection, schedule: Q04DX002 (ip), vehicle: saline
  T/C: 108 % of control

## CCOc1cccc(/C=C2\NC(=S)N(c3ccccc3)C2=O)c1O
[1]
  T/C: 101 % of control
[2]
  T/C: 93 % of control
[3]
  T/C: 99 % of control

## C=C1C(=O)OC2C(OC(=O)C(C)C)CCCC12 (stereo not drawn)
dose: 60.0 mg/kg/injection, schedule: Q01DX005 (ip), vehicle: Klucel (hydroxypropylcellulose) (HPC)
  T/C: 105 % of control
dose: 120.0 mg/kg/injection, schedule: Q01DX005 (ip), vehicle: Klucel (hydroxypropylcellulose) (HPC)
  T/C: 100 % of control
dose: 240.0 mg/kg/injection, schedule: Q01DX005 (ip), vehicle: Klucel (hydroxypropylcellulose) (HPC)
  T/C: 102 % of control

## Oc1ccc(O)c2c1C1(Cl)C(Cl)=C(Cl)C2(Cl)C1(Cl)Cl
dose: 100.0 mg/kg/injection, schedule: Q04DX003 (ip), vehicle: other
  T/C: 100 % of control
dose: 200.0 mg/kg/injection, schedule: Q04DX003 (ip), vehicle: other
  T/C: 104 % of control
dose: 400.0 mg/kg/injection, schedule: Q04DX003 (ip), vehicle: other
  T/C: 113 % of control

## CC1(C)CCC2(C(=O)OC3OC(CO)C(O)C(O)C3O)CCC3(C)C(=CCC4C5(C)CCC(OC6OC(CO)C(O)C(OC7OC(CO)C(O)C(O)C7O)C6O)C(C)(C)C5CCC43C)C2C1 (stereo not drawn)
dose: 6.25 mg/kg/injection, schedule: Q01DX005 (ip), vehicle: Klucel (hydroxypropylcellulose) (HPC)
  T/C: 102 % of control
dose: 12.5 mg/kg/injection, schedule: Q01DX005 (ip), vehicle: Klucel (hydroxypropylcellulose) (HPC)
  T/C: 98 % of control
dose: 25.0 mg/kg/injection, schedule: Q01DX005 (ip), vehicle: Klucel (hydroxypropylcellulose) (HPC)
  T/C: 116 % of control
[1]
  T/C: 105 % of control

## CC(C)CC(C)N(C(=S)S)C(C)CC(C)C.[Zn+2] (stereo not drawn)
[4]
  T/C: 100 % of control
[5]
  T/C: 104 % of control
[6]
  T/C: 100 % of control

## COC(=O)C1=NC1c1ccc(C)cc1 (stereo not drawn)
dose: 100.0 mg/kg/injection, schedule: Q01DX001 (ip), vehicle: saline with Tween-80
  T/C: 104 % of control
dose: 200.0 mg/kg/injection, schedule: Q01DX001 (ip), vehicle: saline with Tween-80
  T/C: 110 % of control
dose: 400.0 mg/kg/injection, schedule: Q01DX001 (ip), vehicle: saline with Tween-80
  T/C: 100 % of control

## CC1(CCBr)C(=O)NC(=O)NC1=O
[4]
  T/C: 101 % of control
[5]
  T/C: 101 % of control
[6]
  T/C: 105 % of control

## C=Cn1ccnc1C.C=Cn1ccnc1C.CC(=O)CC(C)=O.CC(=O)CC(C)=O.[Co]
dose: 12.5 mg/kg/injection, schedule: Q04DX003 (ip), vehicle: saline
  T/C: 117 % of control and 95 % of control
dose: 25.0 mg/kg/injection, schedule: Q04DX003 (ip), vehicle: saline
  T/C: 102 % of control and 117 % of control
dose: 50.0 mg/kg/injection, schedule: Q04DX003 (ip), vehicle: saline
  T/C: 105 % of control and 123 % of control

## CC1=C(C)C[C@](C)(S(=O)(=O)N2CCOCC2)S(=O)C1 (stereo partly drawn)
dose: 60.0 mg/kg/injection, schedule: Q01DX005 (ip), vehicle: saline
  T/C: 105 % of control
dose: 120.0 mg/kg/injection, schedule: Q01DX005 (ip), vehicle: saline
  T/C: 98 % of control
dose: 240.0 mg/kg/injection, schedule: Q01DX005 (ip), vehicle: saline
  T/C: 111 % of control

## CC(C)(C)c1cc(C(C)(C)C)c(=O)oc(=O)c1
[1]
  T/C: 98 % of control
[2]
  T/C: 98 % of control

## CCC1(CC)C(=O)ON(C(C)(C)N2OC(=O)C(CC)(CC)C2=O)C1=O
[1]
  T/C: 102 % of control
[2]
  T/C: 104 % of control
[3]
  T/C: 96 % of control

## CCOP1(=O)OC(c2ccccc2)C(C)N1C (stereo not drawn)
[1]
  T/C: 100 % of control
[2]
  T/C: 104 % of control
[3]
  T/C: 107 % of control

## C1CNC(C2=NCCN2)=N1
[4]
  T/C: 108 % of control
[5]
  T/C: 101 % of control
[6]
  T/C: 97 % of control
